Test results as given in ChEMBL document CHEMBL3392990, “Multifunctional coumarin derivatives: monoamine oxidase B (MAO-B) inhibition, anti-β-amyloid (Aβ) aggregation and metal chelation properties against Alzheimer's disease” (Bioorg Med Chem Lett, 2015).

How the values were obtained:
[1] = biological target: Amyloid-beta precursor protein (Homo sapiens) (UniProt P05067); assay: Inhibition of amyloid beta (1 to 42) (unknown origin) self-induced aggregation at 20 uM after 46 to 48 hrs by thioflavin-T fluorescence method
[2] = biological target: T1, Amine oxidase [flavin-containing] A (Homo sapiens, UniProt P21397); assay: Inhibition of human recombinant MAO-A using p-tyramine as substrate assessed as H2O2 production at 100 uM after 15 mins by fluorescence assay; settings: 0.25 h
T1 sequence (P21397 whole entry): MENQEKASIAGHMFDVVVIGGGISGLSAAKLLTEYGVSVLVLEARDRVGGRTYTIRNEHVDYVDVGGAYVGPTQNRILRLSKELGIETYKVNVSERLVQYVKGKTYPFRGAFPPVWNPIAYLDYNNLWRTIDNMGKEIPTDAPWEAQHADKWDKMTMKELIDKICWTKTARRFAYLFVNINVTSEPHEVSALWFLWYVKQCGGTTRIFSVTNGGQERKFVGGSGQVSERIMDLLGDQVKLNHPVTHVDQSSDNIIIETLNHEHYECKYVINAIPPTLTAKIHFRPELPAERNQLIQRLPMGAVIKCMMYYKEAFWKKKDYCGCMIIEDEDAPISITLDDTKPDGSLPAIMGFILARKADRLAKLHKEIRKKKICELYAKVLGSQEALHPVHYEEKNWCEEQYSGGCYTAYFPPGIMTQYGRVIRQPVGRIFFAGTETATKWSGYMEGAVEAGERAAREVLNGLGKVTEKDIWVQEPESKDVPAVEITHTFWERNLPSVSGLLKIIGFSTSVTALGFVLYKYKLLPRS

[3] = biological target: T2, Amine oxidase [flavin-containing] B (Homo sapiens, UniProt P27338); assay: Inhibition of human recombinant MAO-B using p-tyramine as substrate assessed as H2O2 production after 15 mins by fluorescence assay
T2 sequence (P27338 whole entry): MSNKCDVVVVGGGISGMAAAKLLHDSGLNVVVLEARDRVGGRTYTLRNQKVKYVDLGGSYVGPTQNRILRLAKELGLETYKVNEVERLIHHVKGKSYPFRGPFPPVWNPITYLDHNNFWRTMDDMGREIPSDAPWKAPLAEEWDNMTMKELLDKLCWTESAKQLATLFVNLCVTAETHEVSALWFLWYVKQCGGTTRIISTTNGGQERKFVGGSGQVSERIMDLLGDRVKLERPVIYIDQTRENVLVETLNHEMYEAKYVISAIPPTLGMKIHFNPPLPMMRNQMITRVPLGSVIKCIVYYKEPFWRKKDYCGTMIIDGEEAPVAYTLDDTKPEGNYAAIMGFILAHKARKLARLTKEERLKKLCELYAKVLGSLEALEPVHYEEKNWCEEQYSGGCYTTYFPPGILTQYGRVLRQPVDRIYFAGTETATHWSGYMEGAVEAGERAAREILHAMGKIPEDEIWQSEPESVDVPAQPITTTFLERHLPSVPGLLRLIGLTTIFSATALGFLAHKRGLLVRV

[4] = Permeability of the compound after 16 hrs by PAMPA; type: ADME; settings: read-out: Peff
[5] = biological target: T2, Amine oxidase [flavin-containing] B; assay: Irreversible inhibition of human MAO-B at 2 times IC50 using p-tyramine as substrate assessed as H2O2 production after 0 to 60 mins
[6] = Metal chelating activity of the compound assessed as formation of copper complex at 35 uM by UV-Vis spectrophotometry; type: physicochemical
[7] = Cytotoxicity against rat PC12 cells assessed as cell viability at 1 to 100 uM after 24 hrs by MTT assay; type: cell-based; settings: pc-12, 24 h
[8] = Cytotoxicity against human SH-SY5Y cells assessed as cell viability at 1 to 100 uM after 24 hrs by MTT assay; type: cell-based
[9] = biological target: T2, Amine oxidase [flavin-containing] B; assay: Ratio of pargyline IC50 to compound IC50 for human recombinant MAO-B

Chain of Amyloid-beta precursor protein (Homo sapiens) (P05067 whole entry): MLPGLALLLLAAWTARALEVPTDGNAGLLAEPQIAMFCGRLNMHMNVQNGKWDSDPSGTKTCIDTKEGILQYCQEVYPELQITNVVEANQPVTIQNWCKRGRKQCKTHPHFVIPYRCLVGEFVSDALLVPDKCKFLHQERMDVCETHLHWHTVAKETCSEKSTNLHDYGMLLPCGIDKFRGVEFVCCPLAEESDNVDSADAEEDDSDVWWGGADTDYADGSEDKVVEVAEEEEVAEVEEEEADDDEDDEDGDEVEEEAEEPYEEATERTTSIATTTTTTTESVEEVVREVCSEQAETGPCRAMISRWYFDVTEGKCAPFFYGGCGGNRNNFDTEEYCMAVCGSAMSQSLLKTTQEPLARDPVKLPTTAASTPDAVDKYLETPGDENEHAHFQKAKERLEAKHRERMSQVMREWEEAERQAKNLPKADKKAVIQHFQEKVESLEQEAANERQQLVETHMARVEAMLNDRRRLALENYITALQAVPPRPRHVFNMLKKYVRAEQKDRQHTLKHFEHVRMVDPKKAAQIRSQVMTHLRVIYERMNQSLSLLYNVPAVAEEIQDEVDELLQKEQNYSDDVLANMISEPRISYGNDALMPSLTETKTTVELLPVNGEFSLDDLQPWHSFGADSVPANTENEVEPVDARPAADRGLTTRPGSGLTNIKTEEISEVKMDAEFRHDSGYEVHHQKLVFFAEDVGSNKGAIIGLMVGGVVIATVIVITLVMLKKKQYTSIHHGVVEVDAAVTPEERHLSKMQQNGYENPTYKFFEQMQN

| Structure (SMILES) | inhibition [1] | inhibition at 100 µM [2] | IC50 [3] | Papp at 16 h [4] | also measured |
| --- | --- | --- | --- | --- | --- |
| Cc1cc(=O)[nH]c2cc(NCc3ccccc3O)ccc12 | 32.6% | – | – | – | – |
| O=c1oc2cc(/N=C/c3ccc(O)cc3O)ccc2c2c1CCCC2 | 58.5% | 22.6% | 3.42 µM | – | – |
| Cc1c(Cl)c(=O)oc2cc(/N=C/c3ccccc3O)ccc12 | 49.3% | – | – | – | – |
| Cc1cc(=O)[nH]c2cc(/N=C/c3ccccc3O)ccc12 | 35.6% | 54.2% | 12.3 µM | – | – |
| Cc1c(Cl)c(=O)oc2cc(/N=C/c3ccc(O)cc3O)ccc12 | 60.2% | – | – | – | – |
| Cc1cc(=O)oc2cc(/N=C/c3ccc(Br)cc3O)ccc12 | 51.5% | – | – | – | – |
| Cc1c(Cl)c(=O)oc2cc(NCc3ccccc3O)ccc12 | 47.6% | – | – | – | – |
| Cc1c(C)c2ccc(/N=C/c3ccc(O)cc3O)cc2oc1=O | 57.6% | – | – | 67 nm/s | – |
| O=c1oc2cc(/N=C/c3ccccc3O)ccc2c2c1CCC2 | 52.9% | 3.5% | 0.081 µM | 89 nm/s | inhibition (INH) [5]: Active; Activity [6]: Active; Activity [7]: Non-toxic; Activity [8]: Non-toxic; Ratio IC50 [9]: 2 |
| C[C@]12CC[C@@H]3c4ccc(O)cc4CC[C@H]3[C@@H]1CC[C@@H]2O [ESTRADIOL] | – | – | – | 83.3 nm/s | – |
| Cc1c(C)c2ccc(/N=C/c3ccccc3O)cc2oc1=O | 53.9% | – | – | 106 nm/s | – |
| Cc1c(C)c2ccc(NCc3ccccc3O)cc2oc1=O | 47.7% | – | – | 123 nm/s | – |
| CN1C(C(=O)Nc2ccccn2)=C(O)c2ccccc2S1(=O)=O [PIROXICAM] | – | – | – | 17.2 nm/s | – |
| O=c1oc2cc(NCc3ccccc3O)ccc2c2c1CCCC2 | 43.7% | 53.6% | 1.24 µM | – | – |
| COc1ccc(/C=N/c2ccc3c(C)cc(=O)oc3c2)c(O)c1 | 50.2% | – | – | – | – |
| Cc1c(C)c2ccc(/N=C/c3ccccc3O)cc2[nH]c1=O | 49.1% | 17.7% | 1.68 µM | – | – |
| NCCc1ccc(O)c(O)c1 [DOPAMINE] | – | – | – | 8.3 nm/s | – |
| O=c1oc2cc(/N=C/c3ccc(O)cc3O)ccc2c2c1CCC2 | 56.4% | 67.6% | 0.217 µM | 47 nm/s | – |
| Cc1cc(=O)oc2cc(/N=C/c3ccccc3O)ccc12 | 44.8% | 47.2% | 0.723 µM | – | – |
| Cc1cc(=O)oc2cc(/N=C/c3ccc(O)cc3O)ccc12 | 50.3% | – | – | – | – |
| C[C@]12C[C@H](O)[C@H]3[C@@H](CCC4=CC(=O)CC[C@@]43C)[C@@H]1CC[C@@H]2C(=O)CO [CORTICOSTERONE] | – | – | – | 10.9 nm/s | – |
| Cc1cc(=O)oc2cc(NCc3ccccc3O)ccc12 | 36.1% | 39.4% | 20.1 µM | – | – |
| O=c1oc2cc(/N=C/c3ccccc3O)ccc2c2c1CCCC2 | 53.7% | 17.2% | 0.841 µM | – | – |
| O=c1oc2cc(NCc3ccccc3O)ccc2c2c1CCC2 | 41.6% | 23.6% | 9.33 µM | – | – |
| Cc1ccc(/C=N/c2ccc3c(C)cc(=O)oc3c2)c(O)c1 | 49.4% | – | – | – | – |
